# Results reported in patent US4652547A (Eli Lilly and Company, priority 1984, dated 1987).
# Where two headings read alike, the source gives them in different places.
# Legend:
# fat cells = conditions: e.g. fat cells; cited from earlier work
# hepatic glucose output = assay: Euglycemic glucose-clamp studies: suppression of hepatic glucose output; format: in vivo, human
# Method: J. Physiol. 237:E214-E223 (1979). With this technique, an antecubital vein is cannulated in an antegrade manner to administer the infusates. A dorsal hand vein is cannulated in a retrograde fashion and kept in a warming device (70° C.) to facilitate venous sampling and provide arterialized venous blood. After insertion of the catheters, [3--3H]-glucose is infused for at least 30 minutes before initiating the hormone infusion. At the onset of hormone infusion, a priming dose of either insulin or proinsulin is administered during the initial 10 minutes in a logarithmically decreasing manner to acutely raise the serum hormone level. […] The overall glucose disposal rate is assessed isotopically for each 20 minute interval of the study.
# (§1) Each subject underwent a total of 8 euglycemic glucose clamp studies, each performed on a separate day. […] Hepatic glucose output was quantitated in the basal state and during each clamp study using a primed continuous infusion of [3--3H]glucose. […] The dose response relationship for insulin and proinsulinmediated suppression of hepatic glucose output was determined by calculating the percent suppression of basal hepatic glucose output at each steady state hormone concentration obtained during the euglycemic clamp studies.
# [1] = Hormone activity used for dosing; conditions: basis for administered amounts
# HGO = tested on: HGO
# From the text: For example, in non-insulin dependent diabetes mellitus (NIDDM), one of the major metabolic abnormalities that maintains the resultant hyperglycemic state is accelerated hepatic glucose production.
# glucose disposal = assay: Euglycemic glucose-clamp studies: glucose disposal; format: in vivo, human
# Method: Ten healthy control subjects (five female and five male) ranging in age from 25-40 years (mean age=29±3 years) with mean relative body weights of 0.96+0.02 were used.
# With this technique, an antecubital vein is cannulated in an antegrade manner to administer the infusates. A dorsal hand vein is cannulated in a retrograde fashion and kept in a warming device (70° C.) to facilitate venous sampling and provide arterialized venous blood. After insertion of the catheters, [3--3H]-glucose is infused for at least 30 minutes before initiating the hormone infusion. At the onset of hormone infusion, a priming dose of either insulin or proinsulin is administered during the initial 10 minutes in a logarithmically decreasing manner to acutely raise the serum hormone level. The amount of insulin or proinsulin given during this initial 10 minute period is roughly twice that given during each subsequent 10 minute interval by a continuous hormone infusion. […] The overall glucose disposal rate is assessed isotopically for each 20 minute interval of the study.
# On one day, each subject received a 5.0 μg/M2/min (120 mU/M2/min) insulin infusion over a 6 hour period. […] Each proinsulin infusion was carried out for 300 minutes, with the quantitation of its biological effects based on measurements made during the 5th hour of each study. […]
# [2] = tested on: hepatic glucose production; assay: Subcutaneous administration to Type II subjects: hepatic glucose production; format: in vivo, human; conditions: 0.2 U/kg s.c.
# [3] = Method: J. Physiol. 237:E214-E223 (1979). With this technique, an antecubital vein is cannulated in an antegrade manner to administer the infusates. A dorsal hand vein is cannulated in a retrograde fashion and kept in a warming device (70° C.) to facilitate venous sampling and provide arterialized venous blood. After insertion of the catheters, [3--3H]-glucose is infused for at least 30 minutes before initiating the hormone infusion. At the onset of hormone infusion, a priming dose of either insulin or proinsulin is administered during the initial 10 minutes in a logarithmically decreasing manner to acutely raise the serum hormone level. The amount of insulin or proinsulin given during this initial 10 minute period is roughly twice that given during each subsequent 10 minute interval by a continuous hormone infusion. The serum glucose is maintained between 80 and 90 mg/dl throughout the study period with a coefficient of variation of less than 5% by means of a variable rate of infusion of 20% dextrose. The overall glucose disposal rate is assessed isotopically for each 20 minute interval of the study.
# as §1, with “day. Insulin infusion rates of 15, 40, 120, and 240 mU/M2/min were utilized to construct a dose response curve for insulin action. With this approach an attempt was made to achieve steady state insulin concentrations of 40 to 800 μU/ml (Table 1). Each subject was also studied with four different proinsulin infusions.” for “day.”
# [4] = 0.2 U/kg s.c., five Type II subjects
# [5] = tested on: insulin-degrading proteases; conditions: proteases at subcutaneous injection site of certain diabetics
# plasma glucose = assay: Response of fasting Type II diabetic patients: plasma glucose and hypoglycemia; conditions: 0.2 U/kg s.c.
# [6] = remark: listed apart in the source
# From the text: (§2) At this point, the hormone infusion was abruptly stopped, and the glucose concentration was maintained constant until the biologic effects of the infused hormone were no longer detectable.
# [7] = tested on: hepatic glucose output (HGO); assay: Kinetics of activation and deactivation: hepatic glucose output (HGO); format: in vivo, human
# From the text: as §2
# [8] = tested on: peripheral glucose uptake; assay: Kinetics of activation and deactivation: peripheral glucose uptake; format: in vivo, human
# From the text: Marked differences between the two hormones were noted when biologic activity was studied.
# as §2
# [9] = Study A: insulin 15 mU/M^2/min, proinsulin 2.75 μg/M^2/min
substance,measurement,setting,value
human proinsulin,Internalization into target tissues,fat cells,internalized into target tissues
same,Suppression of Hepatic Glucose Output (Mean ± SE),hepatic glucose output; [9],80 ± 6%
same,Hormone concentration required to achieve 90% suppression of hepatic glucose output,"hepatic glucose output; steady state serum concentration, euglycemic clamp",3.35 pmol/mL
same,Hormone activity,[1],4 IU/mg
same,Expected suppression of HGO,"HGO; NIDDM subjects, circulating concentration approximately 1.5 2 pmol/ml",approximately 50%
same,Expected duration of adequate glycemic control,"HGO; sustained level of 1.5-2 pmol/ml for about 3 hours, CSII or single s.c. injection",8 to 10 h
same,Time to reach steady state rates of glucose disposal,"glucose disposal; 5 subjects, insulin 5.0 μg/M2/min over 6 hours, proinsulin 22.5 μg/M2/min over 8 hours",≤ 5 h
same,Glucose Disposal Rate (Mean ± SE),glucose disposal; [9],122 ± 11 mg/M^2/min
same,Effect on hepatic glucose production,[2],suppressed into the normal range
same,Time of maximum suppression of hepatic glucose production,[2],264 ± 31 min
same,Minimum hepatic glucose production,[2]; basal 3.83±0.6,1.21 ± 0.2 mg/kg/min
same,Steady State Hormone Levels (Mean ± SEM),"[3]; infusion A: insulin 0.63 μg/M^2/min, proinsulin 2.75 μg/M^2/min",2.55 ± 0.16 pmol/mL
same,Steady State Hormone Levels (Mean ± SEM),"[3]; infusion B: insulin […]^2/min, proinsulin 7.5 μg/M^2/min",6.24 ± 0.49 pmol/mL
same,Steady State Hormone Levels (Mean ± SEM),"[3]; infusion C: insulin 5.0 μg/M^2/min, proinsulin 22.5 μg/M^2/min",21.2 ± 1.4 pmol/mL
same,Steady State Hormone Levels (Mean ± SEM),"[3]; infusion D: insulin 10.0 μg/M^2/min, proinsulin 45.0 μg/M^2/min",40.0 ± 1.9 pmol/mL
same,Mean peak hormone blood level,[4],6.8 pmol/mL
same,Time of mean peak hormone blood level,[4],230 ± 33 min
same,Degradation by insulin-degrading proteases,[5],not degraded
same,Blood glucose level to which each subject was lowered,plasma glucose; five fasting Type II subjects,80 to 110 mg/dL
same,Plasma Glucose,"plasma glucose; Mean of subjects (mean total dose 18.7 I.U.), 0 min after injection",245 mg/dL
same,Plasma Glucose,"plasma glucose; Mean of subjects (mean total dose 18.7 I.U.), 40 min after injection",235 mg/dL
same,Plasma Glucose,"plasma glucose; Mean of subjects (mean total dose 18.7 I.U.), 80 min after injection",221 mg/dL
same,Plasma Glucose,"plasma glucose; Mean of subjects (mean total dose 18.7 I.U.), 120 min after injection",205 mg/dL
same,Plasma Glucose,"plasma glucose; Mean of subjects (mean total dose 18.7 I.U.), 160 min after injection",188 mg/dL
same,Plasma Glucose,"plasma glucose; Mean of subjects (mean total dose 18.7 I.U.), 200 min after injection",167 mg/dL
same,Plasma Glucose,"plasma glucose; Mean of subjects (mean total dose 18.7 I.U.), 280 min after injection",129 mg/dL
same,Plasma Glucose,"plasma glucose; Mean of subjects (mean total dose 18.7 I.U.), 300 min after injection",113 mg/dL
same,Plasma Glucose,"plasma glucose; Mean of subjects (mean total dose 18.7 I.U.), 360 min after injection",102 mg/dL
same,Plasma Glucose,"plasma glucose; Mean of subjects (mean total dose 18.7 I.U.), 400 min after injection",95 mg/dL
same,Plasma Glucose,"plasma glucose; Mean of subjects (mean total dose 18.7 I.U.), 440 min after injection",92 mg/dL
same,Plasma Glucose,"plasma glucose; Mean of subjects (mean total dose 18.7 I.U.), 480 min after injection",96 mg/dL
same,Plasma Glucose,"plasma glucose; subject (total dose 15.0 I.U.), 0 min after injection",332 mg/dL
same,Plasma Glucose,"plasma glucose; subject (total dose 15.0 I.U.), 40 min after injection",328 mg/dL
same,Plasma Glucose,"plasma glucose; subject (total dose 15.0 I.U.), 80 min after injection",308 mg/dL
same,Plasma Glucose,"plasma glucose; subject (total dose 15.0 I.U.), 120 min after injection",288 mg/dL
same,Plasma Glucose,"plasma glucose; subject (total dose 15.0 I.U.), 160 min after injection",272 mg/dL
same,Plasma Glucose,"plasma glucose; subject (total dose 15.0 I.U.), 200 min after injection",247 mg/dL
same,Plasma Glucose,"plasma glucose; subject (total dose 15.0 I.U.), 240 min after injection",210 mg/dL
same,Plasma Glucose,"plasma glucose; subject (total dose 15.0 I.U.), 280 min after injection",174 mg/dL
same,Plasma Glucose,"plasma glucose; subject (total dose 15.0 I.U.), 360 min after injection",94 mg/dL
same,Plasma Glucose,"plasma glucose; subject four (total dose 27.2 I.U.), 0 min after injection",159 mg/dL
same,Plasma Glucose,"plasma glucose; subject four (total dose 27.2 I.U.), 40 min after injection",144 mg/dL
same,Plasma Glucose,"plasma glucose; subject four (total dose 27.2 I.U.), 120 min after injection",128 mg/dL
same,Plasma Glucose,"plasma glucose; subject four (total dose 27.2 I.U.), 200 min after injection",110 mg/dL
same,Plasma Glucose,"plasma glucose; subject four (total dose 27.2 I.U.), 240 min after injection",101 mg/dL
same,Plasma Glucose,"plasma glucose; subject four (total dose 27.2 I.U.), 280 min after injection",98 mg/dL
same,Plasma Glucose,"plasma glucose; subject four (total dose 27.2 I.U.), 300 min after injection",88 mg/dL
same,Plasma Glucose,"plasma glucose; subject four (total dose 27.2 I.U.), 360 min after injection",84 mg/dL
same,Plasma Glucose,"plasma glucose; subject four (total dose 27.2 I.U.), 400 min after injection",85 mg/dL
same,Plasma Glucose,"plasma glucose; subject four (total dose 27.2 I.U.), 440 min after injection",86 mg/dL
same,Plasma Glucose,"plasma glucose; subject four (total dose 27.2 I.U.), 480 min after injection",88 mg/dL
same,Plasma Glucose,"plasma glucose; subject one (total dose 14.8 I.U.), 0 min after injection",213 mg/dL
same,Plasma Glucose,"plasma glucose; subject one (total dose 14.8 I.U.), 40 min after injection",203 mg/dL
same,Plasma Glucose,"plasma glucose; subject one (total dose 14.8 I.U.), 80 min after injection",187 mg/dL
same,Plasma Glucose,"plasma glucose; subject one (total dose 14.8 I.U.), 160 min after injection",140 mg/dL
same,Plasma Glucose,"plasma glucose; subject one (total dose 14.8 I.U.), 240 min after injection",81 mg/dL
same,Plasma Glucose,"plasma glucose; subject one (total dose 14.8 I.U.), 280 min after injection",77 mg/dL
same,Plasma Glucose,"plasma glucose; subject one (total dose 14.8 I.U.), 300 min after injection",80 mg/dL
same,Plasma Glucose,"plasma glucose; subject one (total dose 14.8 I.U.), 320 min after injection",80 mg/dL
same,Plasma Glucose,"plasma glucose; subject three (total dose 16.3 I.U.), 0 min after injection",290 mg/dL
same,Plasma Glucose,"plasma glucose; subject three (total dose 16.3 I.U.), 40 min after injection",282 mg/dL
same,Plasma Glucose,"plasma glucose; subject three (total dose 16.3 I.U.), 80 min after injection",272 mg/dL
same,Plasma Glucose,"plasma glucose; subject three (total dose 16.3 I.U.), 120 min after injection",250 mg/dL
same,Plasma Glucose,"plasma glucose; subject three (total dose 16.3 I.U.), 160 min after injection",230 mg/dL
same,Plasma Glucose,"plasma glucose; subject three (total dose 16.3 I.U.), 200 min after injection",200 mg/dL
same,Plasma Glucose,"plasma glucose; subject three (total dose 16.3 I.U.), 240 min after injection",183 mg/dL
same,Plasma Glucose,"plasma glucose; subject three (total dose 16.3 I.U.), 280 min after injection",152 mg/dL
same,Plasma Glucose,"plasma glucose; subject three (total dose 16.3 I.U.), 300 min after injection",127 mg/dL
same,Plasma Glucose,"plasma glucose; subject three (total dose 16.3 I.U.), 360 min after injection",101 mg/dL
same,Plasma Glucose,"plasma glucose; subject three (total dose 16.3 I.U.), 400 min after injection",82 mg/dL
same,Plasma Glucose,"plasma glucose; subject three (total dose 16.3 I.U.), 440 min after injection",77 mg/dL
same,Plasma Glucose,"plasma glucose; subject two (total dose 20.0 I.U.), 0 min after injection",231 mg/dL
same,Plasma Glucose,"plasma glucose; subject two (total dose 20.0 I.U.), 40 min after injection",217 mg/dL
same,Plasma Glucose,"plasma glucose; subject two (total dose 20.0 I.U.), 80 min after injection",201 mg/dL
same,Plasma Glucose,"plasma glucose; subject two (total dose 20.0 I.U.), 120 min after injection",191 mg/dL
same,Plasma Glucose,"plasma glucose; subject two (total dose 20.0 I.U.), 160 min after injection",182 mg/dL
same,Plasma Glucose,"plasma glucose; subject two (total dose 20.0 I.U.), 240 min after injection",164 mg/dL
same,Plasma Glucose,"plasma glucose; subject two (total dose 20.0 I.U.), 280 min after injection",143 mg/dL
same,Plasma Glucose,"plasma glucose; subject two (total dose 20.0 I.U.), 300 min after injection",134 mg/dL
same,Plasma Glucose,"plasma glucose; subject two (total dose 20.0 I.U.), 360 min after injection",128 mg/dL
same,Plasma Glucose,"plasma glucose; subject two (total dose 20.0 I.U.), 400 min after injection",117 mg/dL
same,Plasma Glucose,"plasma glucose; subject two (total dose 20.0 I.U.), 440 min after injection",112 mg/dL
same,Plasma Glucose,"plasma glucose; subject two (total dose 20.0 I.U.), 480 min after injection",104 mg/dL
same,Plasma Glucose,"plasma glucose; subject two (total dose 20.0 I.U.), 500 min after injection",100 mg/dL
same,t 1/2 of clearance from the circulation,"[6]; after stopping 5 hour infusion (human insulin 0.55, human proinsulin 2.75 μg/M^2/min)",0.333 h
same,Time by which hormone concentrations are below biologically effective values,[6]; after stopping infusion,≤ 90 minutes
same,Initial volume of distribution compared to human insulin,[6]; primed continuous infusion,much greater
same,Time to steady state hormone concentration,[6]; primed continuous infusion,90 to 120 min
same,Time of initial peak of hormone concentration,"[6]; primed continuous infusion, all infusion rates",no initial peak of hormone concentration was observed
same,t 1/2 of deactivation of effect to inhibit HGO,[7]; after stopping 5 hour infusion,3.83 ± 0.317 h
same,"Time for HGO to return to baseline values, by extrapolation of the curve",[7]; after stopping infusion,> 6 h
same,Time until decline in effect to suppress HGO could be detected,[7]; after stopping infusion,120 min
same,t 1/2 of deactivation of effects on glucose disposal,[8]; after stopping 5 hour infusion,1.45 ± 0.233 h
same,"Decay of effect to stimulate glucose disposal, times more slowly than human insulin",[8]; after stopping infusion,2.2 times
same,Time for glucose disposal rates to return to basal,[8]; following cessation of infusion,160 min
same,Time for effect to stimulate glucose disposal to reach steady state,[8]; hormone infusion,> 5 h
